Measured values: patent publication US8414878B2, “Irilis biopreparation based on bacillus-strain bacteria, bacillus subtilis and bacillus licheniformis contained therein” (priority 2005, dated 2013)

Assays:
B. subtilis VKPMB-8611 = experiment: Sensitivity to antibiotics, delay zones of culture growth; format: cell-based, Bacillus subtilis; conditions: strain B. subtilis VKPMB-8611
[1] = system: B. licheniformis VKPM B-8610; experiment: as above; format: cell-based, Bacillus licheniformis; conditions: strain B. licheniformis VKPM B-8610

Compound	Diameter of delay zones of cultures growth (B. subtilis VKPMB-8611)	Diameter of delay zones of cultures growth [1]
NCC[C@H](O)C(=O)N[C@@H]1C[C@H](N)[C@@H](O[C@H]2O[C@H](CN)[C@@H](O)[C@H](O)[C@H]2O)[C@H](O)[C@H]1O[C@H]1O[C@H](CO)[C@@H](O)[C@H](N)[C@H]1O [Amicacin]	22 ± 0.3 mm	17 + 0.2 mm
CC1(C)S[C@@H]2[C@H](NC(=O)[C@H](N)c3ccc(O)cc3)C(=O)N2[C@H]1C(=O)O [Amoscipillin]	19 ± 0.2 mm	16 + 0.1 mm
CC1(C)S[C@@H]2[C@H](NC(=O)[C@H](N)c3ccccc3)C(=O)N2[C@H]1C(=O)O [Ampicillin]	11 ± 0.2 mm	0 mm
CC1(C)S[C@@H]2[C@H](NC(=O)[C@H](NC(=O)N3CCNC3=O)c3ccccc3)C(=O)N2[C@H]1C(=O)O [Azlocillin]	19 ± 0.1 mm	16 + 0.1 mm
CC1(C)S[C@@H]2[C@H](NC(=O)Cc3ccccc3)C(=O)N2[C@H]1C(=O)O [Benzylpenicillin]	7 ± 0.1 mm	3 ± 0.2 mm
CC1(C)S[C@@H]2[C@H](NC(=O)C(C(=O)O)c3ccccc3)C(=O)N2[C@H]1C(=O)O (stereo partly drawn) [Carbenicillin]	23 ± 0.5 mm	20 + 0.1 mm
Cn1nnnc1SCC1=C(C(=O)O)N2C(=O)[C@@H](NC(=O)[C@H](O)c3ccccc3)[C@H]2SC1 [Cefamandole]	35 ± 0.3 mm	15 + 0.1 mm
Cc1nnc(SCC2=C(C(=O)O)N3C(=O)[C@@H](NC(=O)Cn4cnnn4)[C@H]3SC2)s1 [Cefazolin]	25 ± 0.2 mm	19 + 0.2 mm
CCN1CCN(C(=O)N[C@@H](C(=O)N[C@@H]2C(=O)N3C(C(=O)O)=C(CSc4nnnn4C)CS[C@H]23)c2ccc(O)cc2)C(=O)C1=O [Cefoperazone]	15 ± 0.2 mm	13 + 0.1 mm
CO/N=C(\C(=O)N[C@@H]1C(=O)N2C(C(=O)O)=C(COC(C)=O)CS[C@H]12)c1csc(N)n1 [Cefotaxime]	15 ± 0.1 mm	9 + 0.1 mm
CO[C@@]1(NC(=O)Cc2cccs2)C(=O)N2C(C(=O)O)=C(COC(N)=O)CS[C@@H]21 [Cefoxitin]	18 ± 0.1 mm	13 + 0.1 mm
CC(C)(O/N=C(\C(=O)N[C@@H]1C(=O)N2C(C(=O)[O-])=C(C[n+]3ccccc3)CS[C@H]12)c1csc(N)n1)C(=O)O [Ceftazidime]	6 ± 0.3 mm	13 + 02 mm
CO/N=C(\C(=O)N[C@@H]1C(=O)N2C(C(=O)O)=CCS[C@H]12)c1csc(N)n1 [Ceftizoxime]	3 ± 0.1 mm	11 ± 0.1 mm
CO/N=C(\C(=O)N[C@@H]1C(=O)N2C(C(=O)O)=C(CSc3nc(=O)c(=O)[nH]n3C)CS[C@H]12)c1csc(N)n1 [Ceftriaxone]	20 + 0.4 mm	12 + 02 mm
CO/N=C(\C(=O)N[C@@H]1C(=O)N2C(C(=O)O)=C(COC(N)=O)CS[C@H]12)c1ccco1 [Cefuroxime]	2 ± 0.1 mm	3 ± 0.1 mm
CC(=O)OCC1=C(C(=O)O)N2C(=O)[C@@H](NC(=O)Cc3cccs3)[C@H]2SC1 [Cephalothin]	35 ± 0.1 mm	21 + 0.3 mm
O=C(N[C@H](CO)[C@H](O)c1ccc([N+](=O)[O-])cc1)C(Cl)Cl [Chloramphenicol]	18 ± 0.3 mm	10 ± 0.1 mm
CCC[C@@H]1C[C@@H](C(=O)N[C@@H]([C@H]2O[C@H](SC)[C@H](O)[C@@H](O)[C@H]2O)[C@H](C)Cl)N(C)C1 [Clindamycin]	9 + 0.2 mm	12 + 0.1 mm

Compound	Diameter of delay zones of cultures growth (B. subtilis VKPMB-8611)	Diameter of delay zones of cultures growth [1]
C[C@@H](O)[C@H]1C(=O)N2C(C(=O)O)=C(SCCN=CN)C[C@H]12 [Imipenems]	38 ± 0.2 mm	30 + 0.1 mm
NC[C@H]1O[C@H](O[C@H]2[C@H](O)[C@@H](O[C@H]3O[C@H](CO)[C@@H](O)[C@H](N)[C@H]3O)[C@H](N)C[C@@H]2N)[C@H](O)[C@@H](O)[C@@H]1O [Kanamycin]	22 ± 0.2 mm	21 + 0.1 mm
COc1cccc(OC)c1C(=O)N[C@@H]1C(=O)N2[C@@H]1SC(C)(C)[C@@H]2C(=O)O [Methicillin]	20 ± 0.1 mm	10 ± 0D
CC1(C)S[C@@H]2[C@H](NC(=O)[C@H](NC(=O)N3CCN(S(C)(=O)=O)C3=O)c3ccccc3)C(=O)N2[C@H]1C(=O)O [Mezlocillin]	21 ± 0.2 mm	15 + 0.2 mm
CO[C@@]1(NC(=O)C(C(=O)O)c2ccc(O)cc2)C(=O)N2C(C(=O)O)=C(CSc3nnnn3C)CO[C@@H]21 (stereo partly drawn) [Mocsalactam]	–	12 + 03 mm
CCn1cc(C(=O)O)c(=O)c2ccc(C)nc21 [Nalidixic acid]	21 ± 0.1 mm	15 + 0.1 mm
O=C1CN(/N=C/c2ccc([N+](=O)[O-])o2)C(=O)N1 [Nitrofurantoin]	15 + 0.2 mm	20 + 0.1 mm
CCn1cc(C(=O)O)c(=O)c2cc(F)c(N3CCNCC3)cc21 [Norfloxacin]	24 ± 0.2 mm	25 + 0.2 mm
Cc1onc(-c2ccccc2)c1C(=O)N[C@@H]1C(=O)N2[C@@H]1SC(C)(C)[C@@H]2C(=O)O [Oxacillin]	15 ± 0.3 mm	11 + 0.1 mm
CCN1CCN(C(=O)N[C@@H](C(=O)N[C@@H]2C(=O)N3[C@@H]2SC(C)(C)[C@@H]3C(=O)O)c2ccccc2)C(=O)C1=O [Piperacillin]	15 + 03 mm	11 + 0.1 mm
CN(C)[C@@H]1C(O)=C(C(N)=O)C(=O)[C@@]2(O)C(O)=C3C(=O)c4c(O)cccc4[C@@](C)(O)[C@H]3C[C@@H]12 [Tetracycline]	26 + 0.1 mm	24 + 0.1 mm
CC1(C)S[C@@H]2[C@H](NC(=O)[C@H](C(=O)O)c3ccsc3)C(=O)N2[C@H]1C(=O)O [Ticarcillin]	25 ± 0.4 mm	21 + 0.2 mm
NC[C@H]1O[C@H](O[C@H]2[C@H](O)[C@@H](O[C@H]3O[C@H](CO)[C@@H](O)[C@H](N)[C@H]3O)[C@H](N)C[C@@H]2N)[C@H](N)C[C@@H]1O [Tobramycin]	25 ± 0.1 mm	20 + 0.2 mm
COc1cc(Cc2cnc(N)nc2N)cc(OC)c1OC [Ttrimethoprim]	23 ± 0.1 mm	25 + 0.2 mm
CN[C@H](CC(C)C)C(=O)N[C@H]1C(=O)N[C@@H](CC(N)=O)C(=O)N[C@H]2C(=O)N[C@H]3C(=O)N[C@H](C(=O)N[C@H](C(=O)O)c4cc(O)cc(O)c4-c4cc3ccc4O)[C@H](O)c3ccc(c(Cl)c3)Oc3cc2cc(c3O[C@@H]2O[C@H](CO)[C@@H](O)[C@H](O)[C@H]2O[C@H]2C[C@](C)(N)[C@H](O)[C@H](C)O2)Oc2ccc(cc2Cl)[C@H]1O [Vancomycin]	12 ± 0.1 mm	10 ± 0.1 mm
Gentamicin	25 ± 0.3 mm	19 + 0.2 mm
Polymyxin E	11 + 0.1 mm	10 + 0.2 mm
